{"source": "patent US11634702B2", "about": "“Cell signaling pathway activation by local AC electric field” (ARIZONA BOARD OF REGENTS ON BEHALF OF ARIZONA STATE …, priority 2018, dated 2023)", "tested_on": "EGFR-Ras-ERK signaling pathway in MCF10A cells", "assay": "ERK activation by AC EF stimulation (ERKTR reporter) in blocker tests", "assay_type": "cell-based"}
{"smiles": "CC(=O)OCOC(=O)CN(CC(=O)OCOC(C)=O)c1ccccc1OCCOc1ccccc1N(CC(=O)OCOC(C)=O)CC(=O)OCOC(C)=O", "note": "[BAPTA AM]", "values": [{"measurement": "effect on ERK activation under AC EF stimulation", "setting": "BAPTA AM 3 μM", "value": "neither Ca2+ chelator (BAPTA AM, 3 μM, Life Technologies), nor ROS quencher (Trolox, 350 μM, Sigma-Aldrich) could block the EF activation of ERK"}]}
{"smiles": "Cc1c(C)c2c(c(C)c1O)CCC(C)(C(=O)O)O2", "note": "(centres unmarked) [Trolox]", "values": [{"measurement": "effect on ERK activation under AC EF stimulation", "setting": "Trolox 350 μM", "value": "neither Ca2+ chelator (BAPTA AM, 3 μM, Life Technologies), nor ROS quencher (Trolox, 350 μM, Sigma-Aldrich) could block the EF activation of ERK"}]}
